Results as given in ChEMBL document CHEMBL1828558, “Discovery of (+)-N-(3-aminopropyl)-N-[1-(5-benzyl-3-methyl-4-oxo-[1,2]thiazolo[5,4-d]pyrimidin-6-yl)-2-methylpropyl]-4-methylbenzamide (AZD4877), a kinesin spindle protein inhibitor and potential anticancer agent” (J Med Chem, 2011).

Legend:
[1] = Clearance in nude mouse; format: ADME, organism-based; conditions: in vivo
[2] = Half-life in Wistar rat at 6 mg/kg, iv administered as a single bolus dose; format: ADME, organism-based; parameters: dose 6 mg/kg, route intravenous; conditions: in vivo
[3] = Half-life in rat at 1 and 5 mg/kg, iv administered as bolus dose; format: ADME, organism-based; parameters: dose 5 mg/kg, route intravenous; conditions: in vivo
Kinesin-1 heavy chain = target: T1, Kinesin-1 heavy chain (Homo sapiens, UniProt P33176); test: Inhibition of human GST-conventional kinesin ATPase activity after 20 mins by malachite green assay
T1 sequence (P33176 whole entry): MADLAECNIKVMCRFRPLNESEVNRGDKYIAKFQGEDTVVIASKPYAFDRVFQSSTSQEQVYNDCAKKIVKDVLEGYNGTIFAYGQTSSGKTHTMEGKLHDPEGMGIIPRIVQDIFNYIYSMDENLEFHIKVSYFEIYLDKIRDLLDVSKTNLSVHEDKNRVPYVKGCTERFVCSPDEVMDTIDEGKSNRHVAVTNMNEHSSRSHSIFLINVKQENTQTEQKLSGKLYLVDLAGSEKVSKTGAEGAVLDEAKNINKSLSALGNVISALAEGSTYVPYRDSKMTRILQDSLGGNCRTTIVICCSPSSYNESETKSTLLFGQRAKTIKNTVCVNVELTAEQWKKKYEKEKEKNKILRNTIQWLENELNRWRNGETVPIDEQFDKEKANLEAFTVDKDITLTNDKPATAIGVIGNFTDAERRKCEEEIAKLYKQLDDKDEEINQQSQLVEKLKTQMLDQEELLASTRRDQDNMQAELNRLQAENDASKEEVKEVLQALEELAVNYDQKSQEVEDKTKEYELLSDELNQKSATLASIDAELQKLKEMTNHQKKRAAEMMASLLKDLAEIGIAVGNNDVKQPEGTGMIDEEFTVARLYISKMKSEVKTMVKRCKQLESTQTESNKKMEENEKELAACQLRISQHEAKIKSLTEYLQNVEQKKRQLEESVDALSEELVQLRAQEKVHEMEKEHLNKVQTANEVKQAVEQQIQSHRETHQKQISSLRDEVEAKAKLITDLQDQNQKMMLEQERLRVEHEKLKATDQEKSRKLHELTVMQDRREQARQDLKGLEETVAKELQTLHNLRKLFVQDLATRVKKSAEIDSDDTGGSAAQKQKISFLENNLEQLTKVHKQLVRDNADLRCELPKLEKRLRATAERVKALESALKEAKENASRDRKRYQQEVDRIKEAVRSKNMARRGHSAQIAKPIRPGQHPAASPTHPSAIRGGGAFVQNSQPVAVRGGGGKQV

Liver microsomes = test: Intrinsic clearance in Wistar rat liver microsomes at 2 uM; format: ADME, Microsome
[4] = Binding affinity to L-type calcium channel in guinea pig ileum by radioligand displacement assay; format: tissue-based, Cavia porcellus
Cytochrome P450 2D6 = Cytochrome P450 2D6 (Homo sapiens, UniProt P10635); test: Inhibition of human recombinant CYP2D6; format: ADME
Cytochrome P450 3A4 = Cytochrome P450 3A4 (Homo sapiens, UniProt P08684); test: Inhibition of human recombinant CYP3A4; format: ADME
Rattus norvegicus = organism: Rattus norvegicus; test: Hepatic blood flow in Wistar rat; format: ADME, organism-based, Liver
[5] = AUC (infinity) in Wistar rat at 6 mg/kg, iv administered as a single bolus dose; format: ADME, organism-based; parameters: time infinity, dose 6 mg/kg, route intravenous; conditions: plasma
COLO 205 = test: Anticancer activity against human COLO205 cells after 72 hrs by MTS/PMS assay; format: functional, cell-based; conditions: colo 205
Cytochrome P450 2C19 = Cytochrome P450 2C19 (Homo sapiens, UniProt P33261); test: Inhibition of human recombinant CYP2C19; format: ADME
Cytochrome P450 2C9 = Cytochrome P450 2C9 (Homo sapiens, UniProt P11712); test: Inhibition of human recombinant CYP2C9; format: ADME
[6] = target: T2, Kinesin-like protein KIF11 (Homo sapiens, UniProt P52732); test: Inhibition of human recombinant C-terminal His6-tagged KSP ATPase activity after 1 hr by malachite green assay
T2 sequence (P52732 whole entry): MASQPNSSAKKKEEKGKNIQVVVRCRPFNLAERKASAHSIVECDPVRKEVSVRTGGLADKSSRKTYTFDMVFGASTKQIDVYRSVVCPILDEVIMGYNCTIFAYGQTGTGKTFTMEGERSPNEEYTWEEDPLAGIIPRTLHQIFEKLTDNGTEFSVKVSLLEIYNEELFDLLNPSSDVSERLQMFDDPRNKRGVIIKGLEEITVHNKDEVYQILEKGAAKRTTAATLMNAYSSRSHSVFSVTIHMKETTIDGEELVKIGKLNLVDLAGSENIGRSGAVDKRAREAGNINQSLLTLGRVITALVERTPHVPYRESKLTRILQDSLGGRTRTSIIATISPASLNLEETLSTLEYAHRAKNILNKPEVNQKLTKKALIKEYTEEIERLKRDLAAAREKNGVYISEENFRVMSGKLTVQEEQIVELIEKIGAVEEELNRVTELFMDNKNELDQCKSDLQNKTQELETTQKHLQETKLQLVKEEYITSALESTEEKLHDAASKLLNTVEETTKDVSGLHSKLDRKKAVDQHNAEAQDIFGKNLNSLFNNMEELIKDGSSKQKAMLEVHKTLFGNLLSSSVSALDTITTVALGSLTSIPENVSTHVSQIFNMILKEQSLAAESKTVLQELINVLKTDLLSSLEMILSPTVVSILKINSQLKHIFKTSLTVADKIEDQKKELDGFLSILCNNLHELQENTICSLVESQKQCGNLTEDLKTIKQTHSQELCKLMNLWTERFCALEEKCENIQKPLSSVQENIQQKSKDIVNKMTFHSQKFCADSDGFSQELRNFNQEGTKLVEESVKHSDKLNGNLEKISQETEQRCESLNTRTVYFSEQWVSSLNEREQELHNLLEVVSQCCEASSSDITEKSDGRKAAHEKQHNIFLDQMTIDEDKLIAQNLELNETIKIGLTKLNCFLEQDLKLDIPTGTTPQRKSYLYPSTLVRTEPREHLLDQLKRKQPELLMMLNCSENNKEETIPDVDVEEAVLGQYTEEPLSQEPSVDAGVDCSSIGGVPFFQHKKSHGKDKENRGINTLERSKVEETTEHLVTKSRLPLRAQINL

Liver = test: Intrinsic clearance in Wistar rat hepatocytes at 2 uM; format: ADME, cell-based, Hepatocyte
[7] = Volume of distribution at steady state in Wistar rat at 6 mg/kg, iv administered as a single bolus dose; format: ADME, organism-based; parameters: dose 6 mg/kg, route intravenous; conditions: in vivo, read-out: Vdss
[8] = Clearance in Wistar rat; format: ADME, organism-based; conditions: in vivo
[9] = Binding affinity to sodium channel in guinea pig atria by radioligand displacement assay; parameters: species or system Cavia porcellus
[10] = Plasma protein binding in Wistar rat; format: ADME, cell-free; conditions: read-out: PPB (converted)
[11] = Drug level in fiber in Hans Wistar rat hollow fiber model implanted with human COLO205 cells at 6 mg/kg, iv after 24 hrs; format: ADME, organism-based, COLO 205; parameters: dose 6 mg/kg, route intravenous; conditions: read-out: Drug uptake
[12] = Volume of distribution in rat at 1 and 5 mg/kg, iv administered as bolus dose; format: ADME, organism-based; parameters: dose 5 mg/kg, route intravenous; conditions: in vivo
[13] = Initial plasma concentration in Wistar rat at 6 mg/kg, iv administered as a single bolus dose; format: ADME, organism-based; parameters: dose 6 mg/kg, route intravenous
[14] = Clearance in Wistar rat at 6 mg/kg, iv administered as a single bolus dose; format: ADME, organism-based; parameters: dose 6 mg/kg, route intravenous; conditions: in vivo

Sequence of Cytochrome P450 2D6 (P10635 whole entry): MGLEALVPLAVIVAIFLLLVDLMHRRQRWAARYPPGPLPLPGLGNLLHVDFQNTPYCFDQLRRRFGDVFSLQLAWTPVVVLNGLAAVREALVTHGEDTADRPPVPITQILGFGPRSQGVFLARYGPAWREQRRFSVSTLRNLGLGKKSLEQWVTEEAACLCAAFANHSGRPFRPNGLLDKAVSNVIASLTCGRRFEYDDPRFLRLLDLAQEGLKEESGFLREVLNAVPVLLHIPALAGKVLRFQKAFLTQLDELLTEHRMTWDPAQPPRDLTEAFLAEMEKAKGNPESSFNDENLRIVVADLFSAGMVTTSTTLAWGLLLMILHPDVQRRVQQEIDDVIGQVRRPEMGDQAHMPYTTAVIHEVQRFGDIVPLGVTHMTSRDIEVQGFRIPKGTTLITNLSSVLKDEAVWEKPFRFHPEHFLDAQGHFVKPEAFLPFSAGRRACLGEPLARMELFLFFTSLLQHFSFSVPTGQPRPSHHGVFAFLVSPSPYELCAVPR
Sequence of Cytochrome P450 2C9 (P11712 whole entry): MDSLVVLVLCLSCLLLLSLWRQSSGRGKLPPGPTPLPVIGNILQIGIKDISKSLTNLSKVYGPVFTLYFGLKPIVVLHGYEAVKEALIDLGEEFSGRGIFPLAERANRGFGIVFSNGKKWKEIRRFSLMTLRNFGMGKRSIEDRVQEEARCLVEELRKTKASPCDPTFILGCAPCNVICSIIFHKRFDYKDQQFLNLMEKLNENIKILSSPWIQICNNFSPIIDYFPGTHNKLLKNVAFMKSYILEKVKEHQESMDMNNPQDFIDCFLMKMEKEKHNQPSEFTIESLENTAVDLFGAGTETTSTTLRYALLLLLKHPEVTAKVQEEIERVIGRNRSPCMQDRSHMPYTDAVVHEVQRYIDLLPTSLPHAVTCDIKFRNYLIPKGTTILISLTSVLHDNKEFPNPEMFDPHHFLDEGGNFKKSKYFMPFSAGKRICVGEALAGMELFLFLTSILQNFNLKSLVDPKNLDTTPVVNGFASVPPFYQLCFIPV
Sequence of Cytochrome P450 2C19 (P33261 whole entry): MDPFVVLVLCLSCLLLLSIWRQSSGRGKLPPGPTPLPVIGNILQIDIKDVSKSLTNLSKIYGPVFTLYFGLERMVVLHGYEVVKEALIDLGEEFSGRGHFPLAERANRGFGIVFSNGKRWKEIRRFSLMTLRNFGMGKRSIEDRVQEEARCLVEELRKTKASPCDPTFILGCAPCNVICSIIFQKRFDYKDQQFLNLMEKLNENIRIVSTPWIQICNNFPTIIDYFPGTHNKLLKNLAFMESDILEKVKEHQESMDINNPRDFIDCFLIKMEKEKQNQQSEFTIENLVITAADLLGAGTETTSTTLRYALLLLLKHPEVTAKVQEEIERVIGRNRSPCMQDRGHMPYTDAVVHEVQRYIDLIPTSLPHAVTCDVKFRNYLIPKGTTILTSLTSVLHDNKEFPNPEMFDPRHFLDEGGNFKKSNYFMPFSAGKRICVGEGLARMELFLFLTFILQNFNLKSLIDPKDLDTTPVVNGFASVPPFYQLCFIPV
Sequence of Cytochrome P450 3A4 (P08684 whole entry): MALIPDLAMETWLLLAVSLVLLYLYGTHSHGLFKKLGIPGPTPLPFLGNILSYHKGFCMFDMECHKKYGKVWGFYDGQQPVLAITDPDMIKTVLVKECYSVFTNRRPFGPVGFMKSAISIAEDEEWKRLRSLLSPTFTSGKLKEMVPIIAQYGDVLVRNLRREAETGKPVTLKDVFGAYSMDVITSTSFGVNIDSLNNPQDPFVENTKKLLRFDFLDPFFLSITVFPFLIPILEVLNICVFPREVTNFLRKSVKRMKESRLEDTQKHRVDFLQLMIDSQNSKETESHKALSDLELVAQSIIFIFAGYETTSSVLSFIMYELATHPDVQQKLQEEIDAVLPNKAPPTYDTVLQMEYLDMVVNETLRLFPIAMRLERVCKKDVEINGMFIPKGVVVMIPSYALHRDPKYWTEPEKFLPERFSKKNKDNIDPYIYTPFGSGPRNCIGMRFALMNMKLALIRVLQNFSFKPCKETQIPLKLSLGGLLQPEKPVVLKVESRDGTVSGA

clearance [1]: 17 mL/min/kg
half-life [2]: 210 min
half-life [3]: 210 min
IC50 (Kinesin-1 heavy chain): > 100 µM
clearance (Liver microsomes): < 10 µL/min/mg
IC50 [4]: 2700 nM
IC50 (Cytochrome P450 2D6): > 10 µM
IC50 (Cytochrome P450 3A4): > 10 µM
QH (Rattus norvegicus): 52%
AUC(0-inf) [5]: 2840 ng·h/mL
IC50 (COLO 205): 3 nM
IC50 (Cytochrome P450 2C19): > 10 µM
IC50 (Cytochrome P450 2C9): > 10 µM
IC50 [6]: 2 nM
CL (Liver): 4 µL/min
Vd [7]: 10 L/kg
clearance [8]: 36 mL/min/kg
IC50 [9]: > 30 µM
fraction unbound [10]: 0.044
concentration at 24 h [11]: 30.7 ng/mL
Vd [12]: 10 L/kg
C0 [13]: 1080 ng/mL
clearance [14]: 36 mL/min/kg
SMILES: Cc1ccc(C(=O)N(CCCN)C(c2nc3snc(C)c3c(=O)n2Cc2ccccc2)C(C)C)cc1 (single isomer, unassigned; (+)) [AZD-4877]
